Test [1] deals with cloned rat KOR (Rattus norvegicus, UniProt P34975). Nature of the test: Radioligand binding assay, KOR. Conditions: SEM.
In test [2] the target is cloned rat MOR (Rattus norvegicus, UniProt P33535). The experiment in a line: Radioligand binding assay, MOR. The note with it: SEM.
Test [3] deals with mouse DOR (Mus musculus, UniProt P32300). The experiment in a line: Radioligand binding assay, DOR.
In test [4] the target is cloned KOR (Rattus norvegicus, UniProt P34975). The experiment in a line: [35S]GTPγS assay at KOR. It is filed as biochemical. The note with it: SEM. (GTPγS resists hydrolysis and so accumulates on activated G proteins.)
Sequence of cloned KOR (P34975 whole entry): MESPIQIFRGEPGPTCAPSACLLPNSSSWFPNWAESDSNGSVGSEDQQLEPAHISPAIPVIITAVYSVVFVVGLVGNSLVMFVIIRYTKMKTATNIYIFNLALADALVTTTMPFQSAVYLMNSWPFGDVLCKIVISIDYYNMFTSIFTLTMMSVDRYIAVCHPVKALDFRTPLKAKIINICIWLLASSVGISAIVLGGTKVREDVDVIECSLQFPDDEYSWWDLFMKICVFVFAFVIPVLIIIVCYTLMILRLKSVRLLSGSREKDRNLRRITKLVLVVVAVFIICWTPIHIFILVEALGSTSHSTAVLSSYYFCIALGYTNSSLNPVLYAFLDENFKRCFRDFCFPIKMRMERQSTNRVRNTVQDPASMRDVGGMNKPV

Where two headings read alike, the source gives them in different places. Where a SMILES comes first, the peptide text is derived from it. Where only a bound is given, the exact number is not on record here.

Sequence of cloned rat KOR (P34975 whole entry): as above
Sequence of mouse DOR (P32300 whole entry): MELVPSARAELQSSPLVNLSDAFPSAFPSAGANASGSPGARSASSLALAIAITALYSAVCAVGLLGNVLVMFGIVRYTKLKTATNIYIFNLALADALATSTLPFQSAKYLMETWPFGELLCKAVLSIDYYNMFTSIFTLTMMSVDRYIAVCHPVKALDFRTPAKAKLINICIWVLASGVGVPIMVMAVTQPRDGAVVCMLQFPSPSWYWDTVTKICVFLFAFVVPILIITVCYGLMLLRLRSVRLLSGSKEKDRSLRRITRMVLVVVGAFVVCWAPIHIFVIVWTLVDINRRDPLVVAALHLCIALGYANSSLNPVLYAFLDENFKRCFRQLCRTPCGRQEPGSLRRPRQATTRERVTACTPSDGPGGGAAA
Sequence of cloned rat MOR (P33535 whole entry): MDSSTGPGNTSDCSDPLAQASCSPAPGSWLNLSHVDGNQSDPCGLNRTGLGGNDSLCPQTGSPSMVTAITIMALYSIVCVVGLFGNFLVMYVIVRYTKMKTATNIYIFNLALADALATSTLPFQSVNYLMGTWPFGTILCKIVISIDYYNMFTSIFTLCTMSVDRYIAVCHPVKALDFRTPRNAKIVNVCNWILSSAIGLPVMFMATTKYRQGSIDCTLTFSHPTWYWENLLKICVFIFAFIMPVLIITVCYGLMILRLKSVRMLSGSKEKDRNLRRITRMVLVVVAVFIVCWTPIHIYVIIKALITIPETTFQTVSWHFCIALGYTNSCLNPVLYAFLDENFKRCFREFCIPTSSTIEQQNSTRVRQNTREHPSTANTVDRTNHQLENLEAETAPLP

On to `CC(C)[C@H](NC(=O)[C@H](CCCCN)NC(=O)[C@H](Cc1ccccc1)NC(=O)[C@H](CCC(N)=O)NC(=O)[C@H](CCCNC(=N)N)NC(=O)[C@H](CCCNC(=N)N)NC(=O)[C@H](C)NC(=O)[C@H](Cc1ccccc1)NC(=O)CNC(=O)CNC(=O)[C@@H](N)Cc1ccc(O)cc1)C(=O)N[C@H](C(=O)N[C@H](C(N)=O)[C@@H](C)O)C(C)C` [Compound 3] (H-YGGFARRQFKVVT-NH2), for which the Ki (usually a dissociation constant, usually derived from enzyme kinetics or from competition with a known ligand) in test [1] was found to be 12.1 ± 5.2 nM; in test [2], 20.3 ± 3.1 nM; in test [3] (SEM), 265 ± 43 nM. In addition, the response in test [4] was half-maximal at 109 ± 34 nM (EC50).

For the molecule `CC(C)C[C@H](NC(=O)[C@H](Cc1ccccc1)NC(=O)CNC(=O)CNC(=O)[C@@H](N)Cc1ccc(O)cc1)C(=O)N[C@@H](CCCNC(=N)N)C(=O)N[C@@H](CCCNC(=N)N)C(=O)N[C@@H](CCC(N)=O)C(=O)N[C@@H](Cc1ccccc1)C(=O)N[C@@H](CCCCN)C(=O)N[C@@H](C)C(=O)N[C@H](C(=O)N[C@H](C(N)=O)[C@@H](C)O)C(C)C` [Compound 9] (H-YGGFLRRQFKAVT-NH2), the inhibitory constant (Ki) was 12.4 ± 1.6 nM in test [1], 7.45 ± 2.69 nM in test [2] and 58.8 ± 3.4 nM in test [3] (SEM). In addition, the EC50 (commonly the concentration that produces a half-maximal response) in test [4] was determined as 8.79 ± 2.2 nM.

On to `CC(C)C[C@H](NC(=O)[C@H](Cc1ccccc1)NC(=O)CNC(=O)CNC(=O)[C@@H](N)Cc1ccc(O)cc1)C(=O)N[C@@H](CCCNC(=N)N)C(=O)N[C@@H](CCCNC(=N)N)C(=O)N[C@@H](CCC(N)=O)C(=O)N[C@@H](Cc1ccccc1)C(=O)N[C@@H](C)C(=O)N[C@H](C(=O)N[C@H](C(=O)N[C@H](C(N)=O)[C@@H](C)O)C(C)C)C(C)C` [Compound 8] (H-YGGFLRRQFAVVT-NH2), for which the Ki in test [1] turned out to be 31.6 ± 6 nM; in test [2], 40.5 ± 3.9 nM; in test [3] (SEM) it was 119 ± 16 nM. The molecule also had an EC50 in test [4] of 6.36 ± 1.7 nM.

`CC(C)C[C@H](NC(=O)[C@H](Cc1ccccc1)NC(=O)CNC(=O)CNC(=O)[C@@H](N)Cc1ccc(O)cc1)C(=O)N[C@@H](CCCNC(=N)N)C(=O)N[C@@H](C)C(=O)N[C@@H](CCC(N)=O)C(=O)N[C@@H](Cc1ccccc1)C(=O)N[C@@H](CCCCN)C(=O)N[C@H](C(=O)N[C@H](C(=O)N[C@H](C(N)=O)[C@@H](C)O)C(C)C)C(C)C` [Compound 5] (H-YGGFLRAQFKVVT-NH2): the inhibition constant (Ki) in test [1] was found to be 82.4 ± 9.3 nM; in test [2], 16.7 ± 5.1 nM; in test [3] (SEM), 67.5 ± 8.3 nM. In addition, in test [4], the EC50 is 802 ± 290 nM.

Take `CC(C)C[C@H](NC(=O)[C@H](Cc1ccccc1)NC(=O)CNC(=O)CNC(=O)[C@@H](N)Cc1ccc(O)cc1)C(=O)N[C@@H](CCCNC(=N)N)C(=O)N[C@@H](CCCNC(=N)N)C(=O)N[C@@H](CCC(N)=O)C(=O)N[C@@H](Cc1ccccc1)C(=O)N[C@@H](CCCCN)C(=O)N[C@H](C(=O)N[C@H](C(=O)N[C@H](C(N)=O)[C@@H](C)O)C(C)C)C(C)C` [Dyn B amide, reference compound]: the Ki in test [1] came out at 6.3 ± 1.68 nM; in test [2], 8.05 ± 2.87 nM; in test [3] (SEM), 43.2 ± 1.6 nM. The molecule further registered an EC50 in test [4] of 9.14 ± 1.96 nM.

Turning to `CC(C)C[C@H](NC(=O)[C@H](Cc1ccccc1)NC(=O)CNC(=O)CNC(=O)[C@H](C)N)C(=O)N[C@@H](CCCNC(=N)N)C(=O)N[C@@H](CCCNC(=N)N)C(=O)N[C@@H](CCC(N)=O)C(=O)N[C@@H](Cc1ccccc1)C(=O)N[C@@H](CCCCN)C(=O)N[C@H](C(=O)N[C@H](C(=O)N[C@H](C(N)=O)[C@@H](C)O)C(C)C)C(C)C` [Compound 1] (H-AGGFLRRQFKVVT-NH2), the Ki is 886 ± 123 nM in test [1], 651 ± 70 nM in test [2] and above 10000 nM in test [3]. Besides, it took 2650 ± 890 nM to reach a half-maximal effect in test [4] (EC50).

On to `CC(C)C[C@H](NC(=O)[C@H](Cc1ccccc1)NC(=O)CNC(=O)CNC(=O)[C@@H](N)Cc1ccc(O)cc1)C(=O)N[C@@H](CCCNC(=N)N)C(=O)N[C@@H](CCCNC(=N)N)C(=O)N[C@@H](C)C(=O)N[C@@H](Cc1ccccc1)C(=O)N[C@@H](CCCCN)C(=O)N[C@H](C(=O)N[C@H](C(=O)N[C@H](C(N)=O)[C@@H](C)O)C(C)C)C(C)C` [Compound 6] (H-YGGFLRRAFKVVT-NH2), for which the Ki in test [1] turned out to be 13 ± 0.96 nM; in test [2] it was 4.32 ± 0.1 nM; in test [3] (SEM), 54 ± 6.9 nM. Besides, the midpoint of the response in test [4], the EC50, lay at 20.2 ± 10.8 nM.

As for `CC(C)C[C@H](NC(=O)[C@H](C)NC(=O)CNC(=O)CNC(=O)[C@@H](N)Cc1ccc(O)cc1)C(=O)N[C@@H](CCCNC(=N)N)C(=O)N[C@@H](CCCNC(=N)N)C(=O)N[C@@H](CCC(N)=O)C(=O)N[C@@H](Cc1ccccc1)C(=O)N[C@@H](CCCCN)C(=O)N[C@H](C(=O)N[C@H](C(=O)N[C@H](C(N)=O)[C@@H](C)O)C(C)C)C(C)C` [Compound 2] (H-YGGALRRQFKVVT-NH2), the figures for the Ki in test [1], in test [2] and in test [3] were 1510 ± 221 nM, 1040 ± 100 nM and above 10000 nM, respectively. For the same molecule, the response in test [4] was half-maximal at 1180 ± 330 nM (EC50).

As for `CC(C)C[C@H](NC(=O)[C@H](Cc1ccccc1)NC(=O)CNC(=O)CNC(=O)[C@@H](N)Cc1ccc(O)cc1)C(=O)N[C@@H](CCCNC(=N)N)C(=O)N[C@@H](CCCNC(=N)N)C(=O)N[C@@H](CCC(N)=O)C(=O)N[C@@H](C)C(=O)N[C@@H](CCCCN)C(=O)N[C@H](C(=O)N[C@H](C(=O)N[C@H](C(N)=O)[C@@H](C)O)C(C)C)C(C)C` [Compound 7] (H-YGGFLRRQAKVVT-NH2), the inhibition constant (Ki) worked out at 11.3 ± 1.7 nM in test [1], 3.76 ± 0.22 nM in test [2] and 42.1 ± 2.5 nM in test [3] (SEM). In test [4], this molecule returned an EC50 of 14.8 ± 2.6 nM.

On to `CC(C)C[C@H](NC(=O)[C@H](Cc1ccccc1)NC(=O)CNC(=O)CNC(=O)[C@@H](N)Cc1ccc(O)cc1)C(=O)N[C@@H](C)C(=O)N[C@@H](CCCNC(=N)N)C(=O)N[C@@H](CCC(N)=O)C(=O)N[C@@H](Cc1ccccc1)C(=O)N[C@@H](CCCCN)C(=O)N[C@H](C(=O)N[C@H](C(=O)N[C@H](C(N)=O)[C@@H](C)O)C(C)C)C(C)C` [Compound 4] (H-YGGFLARQFKVVT-NH2), for which the Ki is 43.1 ± 2.8 nM in test [1], 14.1 ± 3 nM in test [2] and 25.7 ± 1.6 nM in test [3] (SEM). Moreover, the EC50 in test [4] amounted to 116 ± 21 nM.

These data come from paper PMC6003702 (Biopolymers, 2017).
